Experimental data reported in US20210015874A1, “USE OF BIO-TRANSFORMED BEAR BILE POWDER IN PREPARATION OF ANTI-INFLAMMATORY DRUGS” (SHANGHAI KAIBAO PHARMACEUTICAL CO., LTD., priority 2019, published 2021).

System: carrageenan-induced inflammation model
Test: plantar swelling of carrageenan-induced inflammation model in rats
Format: in vivo, SD rats
Conditions: intragastric once, 0.007 g/kg
Experimental: Animal germline: specific pathogen-free (SPF) male SD rats, aged 6-week-old, weighing between 132 g and 199 g when received, and weighing between 152 g and 225 g when drugs are administered to rats, were purchased from Hunan Slake Jingda laboratory Animal Co., Ltd. The laboratory animal production license: SCXK (Xiang) 2016-0002 (valid until Sep. 29, 2021), issued by China Hunan Provincial Science & Technology Department. The laboratory animal quality certificate No.: 43004700060779.
Method for grouping animals: after the quarantine was over, rats that have passed the quarantine inspection were selected for experiments. Groups were randomly assigned on the basis of body weight and divided into 9 groups with 10 rats per group. The 9 groups were as follows: a negative control group, a model group, a group of rats treated with low-dose bio-transformed bear bile powder, a group of rats treated with middle-dose bio-transformed bear bile powder, a group of rats treated with high-dose bio-transformed bear bile powder, a group of rats treated with low-dose natural bear bile powder, a group of rats treated with middle-dose natural bear bile powder, a group of rats treated with high-dose natural bear bile powder, and a positive control group.
Dose and group design for the experiment: a total of 9 groups are contemplated, that is, negative control group (blank control group), a model group, a group of rats treated with low-dose bio-transformed bear bile powder, a group of rats treated with middle-dose bio-transformed bear bile powder, a group of rats treated with high-dose bio-transformed bear bile powder, a group of rats treated with low-dose natural bear bile powder, a group of rats treated with middle-dose natural bear bile powder, a group of rats treated with high-dose natural bear bile powder, and a positive control group (a group of rats treated with indomethacin).
Administration route, administration frequency, and administration period of the test substance and the control: each of them was administered intragastrically, the administration volume was 10 mL/kg, and each group was administered once.
Experimental method: SD male rats that had passed the quarantine inspection were selected for experiments. Groups were divided into 9 groups with 10 male rats per group. The 9 groups were as follows: a negative control group, a model group, a group of rats treated with low-dose bio-transformed bear bile powder, a group of rats treated with middle-dose bio-transformed bear bile powder, a group of rats treated with high-dose bio-transformed bear bile powder, a group of rats treated with low-dose natural bear bile powder, a group of rats treated with middle-dose natural bear bile powder, a group of rats treated with high-dose natural bear bile powder, and a positive control indomethacin group. Before molding, each animal was scored at the ankle joint of the right hind foot, and the volume of the right hind foot was measured with a plantar volume measuring instrument, and it was measured continuously 2 times, wherein the average value obtained from the two measurements was taken as a base volume.
Except for the blank control group, the animals in the remaining groups were injected with 1% by weight of carrageenan suspension at the right hind foot metatarsal palmar fascia, the volume for each rat was 0.1 mL; animals in the blank control group were injected with an equal volume of normal saline; corresponding drugs were administered intragastrically immediately after an injection of carrageenan. The plantar volume of the right hind foot of each group of animals was measured at 1 h, 2 h, 3 h, 4 h, 5 h, and 6 h after injection, and was measured twice consecutively, and the average value obtained from the two measurements was taken as the plantar volume after modeling. The plantar swelling and the plantar swelling inhibition rate were calculated according to the plantar volume measured at different time points after inflammation was induced. […]

## COc1ccc2c(c1)c(CC(=O)O)c(C)n2C(=O)c1ccc(Cl)cc1 [Positive control, indomethacin]
1 h after carrageenan
  Plantar swelling 1 h: 0.21 ± 0.14 mL
2 h after carrageenan
  Plantar swelling 2 h: 0.25 ± 0.16 mL
3 h after carrageenan
  Plantar swelling 3 h: 0.29 ± 0.15 mL
4 h after carrageenan
  Plantar swelling 4 h: 0.15 ± 0.12 mL
5 h after carrageenan
  Plantar swelling 5 h: 0.19 ± 0.09 mL
6 h after carrageenan
  Plantar swelling 6 h: 0.17 ± 0.10 mL
